The values below come from patent US20090209578A1, “CHEMICAL COMPOUNDS” (PFIZER INC, priority 2005, published 2009).

pIC50: −log10 of the molar value.

This assay deals with HIV-1 fusion (gp160 induced cell-cell fusion; HeLa P4 cell line expressing CCR5 and CD4 / CHO-Tat10 cell line) (Homo sapiens, UniProt P51681). The assay is described as follows: gp160 induced cell-cell fusion assay. In kind it is cell-based. Conditions: HeLa P4 / CHO-Tat10 cells, read-out: IC50. The text has this: Biol., 60, 147-52 (1996); and/or by using the intracellular calcium mobilisation assays as described by the same authors, and/or inhibiting cell fusion following procedures disclosed in Bradley et al., J Biomol Screen 9, 516-24 (2004).
Sequence of HIV-1 fusion (gp160 induced cell-cell fusion; HeLa P4 cell line expressing CCR5 and CD4 / CHO-Tat10 cell line) (P51681 whole entry, the tested form may be a part): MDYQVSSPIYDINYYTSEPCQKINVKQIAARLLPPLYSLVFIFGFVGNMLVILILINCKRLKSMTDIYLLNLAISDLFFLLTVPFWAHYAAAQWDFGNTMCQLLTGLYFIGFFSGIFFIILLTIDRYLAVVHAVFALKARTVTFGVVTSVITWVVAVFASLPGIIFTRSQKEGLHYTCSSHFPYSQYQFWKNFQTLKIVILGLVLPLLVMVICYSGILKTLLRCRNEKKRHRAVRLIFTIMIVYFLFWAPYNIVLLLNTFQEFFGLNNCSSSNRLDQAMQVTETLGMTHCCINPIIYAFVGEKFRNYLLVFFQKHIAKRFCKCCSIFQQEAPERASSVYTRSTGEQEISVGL
The gp160 induced cell-cell fusion assay uses a HeLa P4 cell line and a CHO-Tat10 cell line.
The HeLa P4 cell line expresses CCR5 and CD4 and has been transfected with HIV-1 LTR-β-Galactosidase. The media for this cell line is Dulbecco modified eagle's medium (D-MEM) (without L-glutamine) containing 10% foetal calf serum (FCS), 2 mM L-glutamine, penicillin/streptomycin (Pen/Strep; 100 U/mL penicillin+[…] streptomycin), and 1 μg/ml puromycin.
The CHO cell line is a Tat (transcriptional trans activator)-expressing clone from a CHO JRR17.1 cell line that has been transfected with pTat puro plasmid. The media for this cell line is rich medium for mammalian cell culture originally developed at Roswell Park Memorial Institute RPMI1640 (without L-glutamine) containing 10% FCS, 2 mM L-glutamine, 0.5 mg/ml Hygromycin B and 12 µg/ml puromycin. The CHO JRR17.1 line expresses gp160 (JRFL) and is a clone that has been selected for its ability to fuse with a CCR5/CD4 expressing cell line.
Upon cell fusion, Tat present in the CHO cell is able to transactivate the HIV-1 long terminal repeat (LTR) present in the HeLa cell leading to the expression of the β-Galactosidase enzyme. This expression is then measured using a Fluor Ace™ β-Galactosidase reporter assay kit (Bio-Rad cat no. 170-3150). This kit is a quantitative fluorescent assay that determines the level of expression of β-galactosidase using 4-methylumbelliferyl-galactopyranoside (MUG) as substrate. β-Galactosidase hydrolyses the fluorogenic substrate resulting in release of the fluorescent molecule 4-methylumbelliferone (4MU). Fluorescence of 4-methylumbelliferone is then measured on a fluorometer using an excitation wavelength of 360 nm and emission wavelength of 460 nm.
Compounds that inhibit fusion will give rise to a reduced signal and, following solubilisation in an appropriate solvent and dilution in culture medium, a dose-response curve for each compound can be used to calculate IC50 values.
The pIC50 is the IC50 on a negative log10 scale, so that one unit is a factor of ten. On to `COC(=O)N1CCc2nc(C)n(C3CCN(C(C)CC(NC(=O)C4CCC(F)(F)CC4)c4ccccc4)CC3)c2C1` (mixture of isomers) [Example 6], for which the pIC50 is 9.00.
Take `COC(=O)N1CCc2nc(C)n(C3CCN(C(C)CC(NC(=O)CC4CC4)c4ccccc4)CC3)c2C1` (mixture of isomers) [Example 7]: the negative-log IC50 (pIC50) is 9.05.
As for `COC(=O)N1CCc2nc(C)n(C3CCN(C(C)CC(NC(=O)C4CCS(=O)(=O)CC4)c4ccccc4)CC3)c2C1` (mixture of isomers) [Example 8], the pIC50 was 8.22.
With `COC(=O)N1CCc2nc(C)n(C3CCN(C(C)CC(NC(=O)C4CCC4)c4ccccc4)CC3)c2C1` (mixture of isomers) [Example 10], the pIC50 is 9.52.
For `COC(=O)N1CCc2nc(C)n(C3CCN(C(C)CC(NC(=O)C(C)C)c4ccccc4)CC3)c2C1` (mixture of isomers) [Example 11], the pIC50 is 9.22.
As for `COC(=O)N1CCc2nc(C)n(C3CCN(C(C)CC(NC(=O)C4CC4)c4ccccc4)CC3)c2C1` (mixture of isomers) [Example 12], the pIC50 is 9.22.
Turning to `COC(=O)N1CCc2nc(C)n(C3CCN(C(C)CC(NC(=O)OC(C)C)c4ccccc4)CC3)c2C1` (mixture of isomers) [Example 14], the pIC50 was 7.76.
Turning to `COC(=O)N1CCc2c(nc(C)n2C2CCN(C(C)CC(NC(C)=O)c3cccc(F)c3)CC2)C1` (mixture of isomers) [Example 76], the pIC50 was 8.26.
For `COC(=O)N1CCc2c(nc(C)n2C2CCN(C(C)CC(NC(=O)C(C)C)c3cccc(F)c3)CC2)C1` (mixture of isomers) [Example 77], the pIC50 is 9.22.
On to `COC(=O)N1CCc2c(nc(C)n2C2CCN(C(C)CC(NC(=O)C3CC3)c3cccc(F)c3)CC2)C1` (mixture of isomers) [Example 78], for which the pIC50 was 8.74.
For the compound `CC(CC(NC(=O)C1CCC(F)(F)CC1)c1ccccc1)N1CCC(n2ccnc2)CC1` (mixture of isomers) [Example 127], the pIC50 was 8.33.
On to `Cc1nc(C2CCN(C(C)CC(NC(=O)C3CCC(F)(F)CC3)c3ccccc3)CC2)no1` (mixture of isomers) [Example 128], for which the pIC50 was 7.59.
Regarding `CCc1noc(C2CCN(C(C)CC(NC(=O)C3CCC(F)(F)CC3)c3ccccc3)CC2)n1` (mixture of isomers) [Example 129], the negative logarithm of the IC50 (pIC50) is 8.07.
Regarding `CC(C)Cc1nnc(C2CCN(C(C)CC(NC(=O)C3CCC(F)(F)CC3)c3ccccc3)CC2)o1` (mixture of isomers) [Example 130], the pIC50 is 8.23.
Regarding `CC(C)c1nc(C2CCN(C(C)CC(NC(=O)C3CCC(F)(F)CC3)c3ccccc3)CC2)no1` (mixture of isomers) [Example 131], the pIC50 is 7.69.
With `COC(=O)N1CCc2nc(C)n(C3CCN(C(C)C[C@H](NC(=O)OC(C)(C)C)c4ccccc4)CC3)c2C1` (single isomer, unassigned) [Example 2] the figure was 7.85; with `COC(=O)N1CCc2nc(C)n(C3CCN(C(C)C[C@H](NC(=O)OC(C)(C)C)c4ccccc4)CC3)c2C1` (single isomer, unassigned) [Example 3], 6.36.
With `COC(=O)N[C@@H](CC(C)N1CCC(n2c(C)nc3c2CN(C(=O)OC)CC3)CC1)c1ccccc1` (single isomer, unassigned) [Example 13A] the figure was 7.43; with `COC(=O)N[C@@H](CC(C)N1CCC(n2c(C)nc3c2CN(C(=O)OC)CC3)CC1)c1ccccc1` (single isomer, unassigned) [Example 13B], 6.22; with `Cc1nc2c(n1C1CCN(C(C)C[C@H](NC(=O)C3CCC3)c3ccccc3)CC1)CN(C(=O)C(C)C)CC2` (single isomer, unassigned) [Example 24], 9.70.
On to `Cc1nc2c(n1C1CCN(C(C)C[C@H](NC(=O)CC(C)C)c3ccccc3)CC1)CN(C(=O)C(C)C)CC2` (single isomer, unassigned) [Example 28], for which the negative-log IC50 (pIC50) is 7.10.
Turning to `Cc1nc2c(n1C1CCN(C(C)C[C@H](NC(=O)C(C)C)c3ccccc3)CC1)CN(C(=O)C(C)C)CC2` (single isomer, unassigned) [Example 29], the pIC50 is 7.52.
`Cc1nc2c(n1C1CCN(C(C)C[C@H](NC(=O)C3CCC3)c3ccccc3)CC1)CN(C(=O)C(C)C)CC2` (single isomer, unassigned) [Example 30]: the pIC50 is 7.96.
As to `CC(=O)N[C@@H](CC(C)N1CCC(n2c(C)nc3c2CN(C(=O)C(C)C)CC3)CC1)c1ccccc1` (single isomer, unassigned) [Example 31], the pIC50 is 6.72.
With `CCCC(=O)N[C@@H](CC(C)N1CCC(n2c(C)nc3c2CN(C(C)=O)CC3)CC1)c1cccc(F)c1` (single isomer, unassigned) [Example 47], the pIC50 is 9.15.
As for `CC(=O)N1CCc2nc(C)n(C3CCN(C(C)C[C@H](NC(=O)CC(C)C)c4cccc(F)c4)CC3)c2C1` (single isomer, unassigned) [Example 50], the pIC50 is 9.40.
Consider `CC(=O)N1CCc2nc(C)n(C3CCN(C(C)C[C@H](NC(=O)C4CCC(F)(F)CC4)c4cccc(F)c4)CC3)c2C1` (single isomer, unassigned) [Example 51], for which the negative-log IC50 (pIC50) was 9.52.
On to `COC(=O)N1CCc2c(nc(C)n2C2CCN(C(C)C[C@H](NC(C)=O)c3ccccc3)CC2)C1` (single isomer, unassigned) [Example 72], for which the pIC50 was 8.62.
With `COC(=O)N1CCc2c(nc(C)n2C2CCN(C(C)C[C@H](NC(C)=O)c3ccccc3)CC2)C1` (single isomer, unassigned) [Example 73] the figure was 8.04; with `CC(=O)N1CCc2c(nc(C)n2C2CCN(C(C)C[C@H](NC(=O)C(C)C)c3cccc(F)c3)CC2)C1` (single isomer, unassigned) [Example 93], 7.89; with `CCOC(=O)N1CCc2c(nc(C)n2C2CCN(C(C)C[C@H](NC(=O)C(C)C)c3cccc(F)c3)CC2)C1` (single isomer, unassigned) [Example 95], 8.26.
With `CCOC(=O)N1CCc2c(nc(C)n2C2CCN(C(C)C[C@H](NC(=O)C3CC3)c3cccc(F)c3)CC2)C1` (single isomer, unassigned) [Example 97], the pIC50 is 8.00.
In the case of `CCOC(=O)N1CCc2c(nc(C)n2C2CCN(C(C)C[C@H](NC(=O)CC)c3cccc(F)c3)CC2)C1` (single isomer, unassigned) [Example 98] it was 7.72.
Consider `CC(=O)N1CCc2c(nc(C)n2C2CCN(C(C)C[C@H](NC(=O)C3CC3)c3cccc(F)c3)CC2)C1` (single isomer, unassigned) [Example 101], for which the pIC50 was 7.73.
As to `CCC(=O)N[C@@H](CC(C)N1CCC(n2c(C)nc3c2CCN(C(C)=O)C3)CC1)c1cccc(F)c1` (single isomer, unassigned) [Example 102], the negative logarithm of the IC50 (pIC50) is 7.59.
For `Cc1noc(C2CCN(C(C)C[C@H](NC(=O)OC(C)(C)C)c3ccccc3)CC2)n1` (single isomer, unassigned) [Example 106A], the pIC50 was 6.44.
`Cc1noc(C2CCN(C(C)C[C@H](NC(=O)C3CCC(F)(F)CC3)c3ccccc3)CC2)n1` (single isomer, unassigned) [Example 109]: the pIC50 was 8.34.
In the case of `Cc1noc(C2CCN(C(C)C[C@H](NC(=O)C3CCC(F)(F)CC3)c3ccccc3)CC2)n1` (single isomer, unassigned) [Example 110] it was 6.45.
As to `Cc1cc(C(C)C)n(C2CCN(C(C)C[C@H](NC(=O)C3CCC(F)(F)CC3)c3ccccc3)CC2)n1` (single isomer, unassigned) [Example 116], the negative-log IC50 (pIC50) was 7.30.
In the case of `Cc1cc(C(C)C)n(C2CCN(C(C)C[C@H](NC(=O)C3CCC(F)(F)CC3)c3ccccc3)CC2)n1` (single isomer, unassigned) [Example 117], the pIC50 was 5.93.
For the compound `CC(C)c1nnnn1C1CCN(C(C)C[C@H](NC(=O)C2CCC(F)(F)CC2)c2ccccc2)CC1` (single isomer, unassigned) [Example 121], the pIC50 is 9.30.
As to `CC(C[C@H](NC(=O)C1CCC(F)(F)CC1)c1ccccc1)N1CCC(c2nnnn2C(C)C)CC1` (single isomer, unassigned) [Example 125], the pIC50 was 8.66.
For `CC(C[C@H](NC(=O)C1CCC(F)(F)CC1)c1ccccc1)N1CCC(c2nnnn2C(C)C)CC1` (single isomer, unassigned) [Example 126], the pIC50 is 7.66.
As for `COC(=O)N1CCc2nc(C)n(C3CCN(C(C)C[C@H](NC(=O)C4CCC4(F)F)c4ccccc4)CC3)c2C1` (stereo partly drawn) [Example 5], the pIC50 was 9.15.
In the case of `Cc1nc2c(n1C1CCN(C(C)C[C@H](NC(=O)C3(C)CC3)c3ccccc3)CC1)CN(C(=O)C(C)C)CC2` (stereo partly drawn) [Example 22] it was 9.30.
